# Results taken from US20250000865A1, “COMPOUND FOR REDUCING URIC ACID LEVELS” (NEWSOARA BIOPHARMA CO., LTD., priority 2021, published 2025).
# Tested on: healthy subjects
# Assay: Phase I clinical trial, single-dose groups: uric acid index before and after treatment
# Format: in vivo, human
# Settings: for Uric acid (UA) Mean / Uric acid (UA) Median / Uric acid (UA) Minimum value / Uric acid (UA) maximum value / Uric acid (UA) Changes over baseline at last visit (on day 6), Mean / Uric acid (UA) Changes over baseline at last visit (on day 6), Median / Uric acid (UA) Changes over baseline at last visit (on day 6), Minimum value / Uric acid (UA) Changes over baseline at last visit (on day 6), maximum value / Uric acid (UA) Changes over baseline on day 2, Mean / Uric acid (UA) Changes over baseline on day 2, Median / Uric acid (UA) Changes over baseline on day 2, Minimum value / Uric acid (UA) Changes over baseline on day 2, maximum value / Uric acid (UA) Changes over baseline on day 4, Mean / Uric acid (UA) Changes over baseline on day 4, Median / Uric acid (UA) Changes over baseline on day 4, Minimum value / Uric acid (UA) Changes over baseline on day 4, maximum value: N = 9
# Description: The changes of uric acid levels in subjects in single-dose and multi-dose groups of Compound I are shown in FIG. 1A (single dose of 6 mg and single dose of 10 mg), FIG. 1B (single dose of 20 mg and single dose of 30 mg), and FIG. 2 (multi-dose of 10 mg and multi-dose of 20 mg). The corresponding results are also shown in Tables 1.1, 1.2, 1.3, and 2.1, and tables 2.2, 2.3, and 2.4.
# [1] = Last visit (day 6), single dose 6 mg
# [2] = Last visit (day 6), single dose 10 mg
# [3] = Last visit (day 6), single dose 20 mg
# [4] = Last visit (day 6), single dose 30 mg
compound,measurement,setting,value
"COc1cccc2c1ncc1c(=O)n(C3CCC(C(=O)O)CC3)c(=O)n(-c3cccc(Cl)c3)c12 (stereo not shown) [Compound I, 4-[1-(3-chlorophenyl)-7-methoxy-2,4-dioxo-pyrimido[5,4-c]quinolin-3-yl]cyclohexanecarboxylic acid]",Uric acid (UA) Mean,"Baseline, single dose 6 mg",315.9 µmol/L
same,Uric acid (UA) Median,"Baseline, single dose 6 mg",319.0 µmol/L
same,Uric acid (UA) Minimum value,"Baseline, single dose 6 mg",185 µmol/L
same,Uric acid (UA) maximum value,"Baseline, single dose 6 mg",429 µmol/L
same,Uric acid (UA) Mean,"Baseline, single dose 10 mg",335.2 µmol/L
same,Uric acid (UA) Median,"Baseline, single dose 10 mg",330.0 µmol/L
same,Uric acid (UA) Minimum value,"Baseline, single dose 10 mg",224 µmol/L
same,Uric acid (UA) maximum value,"Baseline, single dose 10 mg",446 µmol/L
same,Uric acid (UA) Mean,"Baseline, single dose 20 mg",326.0 µmol/L
same,Uric acid (UA) Median,"Baseline, single dose 20 mg",320.0 µmol/L
same,Uric acid (UA) Minimum value,"Baseline, single dose 20 mg",256 µmol/L
same,Uric acid (UA) maximum value,"Baseline, single dose 20 mg",436 µmol/L
same,Uric acid (UA) Mean,"Baseline, single dose 30 mg",300.9 µmol/L
same,Uric acid (UA) Median,"Baseline, single dose 30 mg",277.0 µmol/L
same,Uric acid (UA) Minimum value,"Baseline, single dose 30 mg",209 µmol/L
same,Uric acid (UA) maximum value,"Baseline, single dose 30 mg",401 µmol/L
same,Uric acid (UA) Mean,"Day 2, single dose 6 mg",272.9 µmol/L
same,Uric acid (UA) Median,"Day 2, single dose 6 mg",272.0 µmol/L
same,Uric acid (UA) Minimum value,"Day 2, single dose 6 mg",160 µmol/L
same,Uric acid (UA) maximum value,"Day 2, single dose 6 mg",347 µmol/L
same,Uric acid (UA) Mean,"Day 2, single dose 10 mg",266.1 µmol/L
same,Uric acid (UA) Median,"Day 2, single dose 10 mg",254.0 µmol/L
same,Uric acid (UA) Minimum value,"Day 2, single dose 10 mg",161 µmol/L
same,Uric acid (UA) maximum value,"Day 2, single dose 10 mg",447 µmol/L
same,Uric acid (UA) Mean,"Day 2, single dose 20 mg",194.9 µmol/L
same,Uric acid (UA) Median,"Day 2, single dose 20 mg",209.0 µmol/L
same,Uric acid (UA) Minimum value,"Day 2, single dose 20 mg",105 µmol/L
same,Uric acid (UA) maximum value,"Day 2, single dose 20 mg",251 µmol/L
same,Uric acid (UA) Mean,"Day 2, single dose 30 mg",135.8 µmol/L
same,Uric acid (UA) Median,"Day 2, single dose 30 mg",144.0 µmol/L
same,Uric acid (UA) Minimum value,"Day 2, single dose 30 mg",60 µmol/L
same,Uric acid (UA) maximum value,"Day 2, single dose 30 mg",178 µmol/L
same,Uric acid (UA) Mean,"Day 4, single dose 6 mg",285.9 µmol/L
same,Uric acid (UA) Median,"Day 4, single dose 6 mg",300.0 µmol/L
same,Uric acid (UA) Minimum value,"Day 4, single dose 6 mg",193 µmol/L
same,Uric acid (UA) maximum value,"Day 4, single dose 6 mg",378 µmol/L
same,Uric acid (UA) Mean,"Day 4, single dose 10 mg",302.8 µmol/L
same,Uric acid (UA) Median,"Day 4, single dose 10 mg",304.0 µmol/L
same,Uric acid (UA) Minimum value,"Day 4, single dose 10 mg",199 µmol/L
same,Uric acid (UA) maximum value,"Day 4, single dose 10 mg",462 µmol/L
same,Uric acid (UA) Mean,"Day 4, single dose 20 mg",277.7 µmol/L
same,Uric acid (UA) Median,"Day 4, single dose 20 mg",279.0 µmol/L
same,Uric acid (UA) Minimum value,"Day 4, single dose 20 mg",179 µmol/L
same,Uric acid (UA) maximum value,"Day 4, single dose 20 mg",340 µmol/L
same,Uric acid (UA) Mean,"Day 4, single dose 30 mg",217.9 µmol/L
same,Uric acid (UA) Median,"Day 4, single dose 30 mg",232.0 µmol/L
same,Uric acid (UA) Minimum value,"Day 4, single dose 30 mg",140 µmol/L
same,Uric acid (UA) maximum value,"Day 4, single dose 30 mg",266 µmol/L
same,Uric acid (UA) Mean,[1],327.2 µmol/L
same,Uric acid (UA) Median,[1],341.0 µmol/L
same,Uric acid (UA) Minimum value,[1],227 µmol/L
same,Uric acid (UA) maximum value,[1],431 µmol/L
same,Uric acid (UA) Mean,[2],357.3 µmol/L
same,Uric acid (UA) Median,[2],367.0 µmol/L
same,Uric acid (UA) Minimum value,[2],243 µmol/L
same,Uric acid (UA) maximum value,[2],508 µmol/L
same,Uric acid (UA) Mean,[3],341.1 µmol/L
same,Uric acid (UA) Median,[3],358.0 µmol/L
same,Uric acid (UA) Minimum value,[3],237 µmol/L
same,Uric acid (UA) maximum value,[3],414 µmol/L
same,Uric acid (UA) Mean,[4],287.4 µmol/L
same,Uric acid (UA) Median,[4],283.0 µmol/L
same,Uric acid (UA) Minimum value,[4],207 µmol/L
same,Uric acid (UA) maximum value,[4],364 µmol/L
same,"Uric acid (UA) Changes over baseline at last visit (on day 6), Mean",single dose 6 mg,11.3 µmol/L
same,"Uric acid (UA) Changes over baseline at last visit (on day 6), Median",single dose 6 mg,22.0 µmol/L
same,"Uric acid (UA) Changes over baseline at last visit (on day 6), Minimum value",single dose 6 mg,-48 µmol/L
same,"Uric acid (UA) Changes over baseline at last visit (on day 6), maximum value",single dose 6 mg,52 µmol/L
same,"Uric acid (UA) Changes over baseline on day 2, Mean",single dose 6 mg,-43.0 µmol/L
same,"Uric acid (UA) Changes over baseline on day 2, Median",single dose 6 mg,-32.0 µmol/L
same,"Uric acid (UA) Changes over baseline on day 2, Minimum value",single dose 6 mg,-112 µmol/L
same,"Uric acid (UA) Changes over baseline on day 2, maximum value",single dose 6 mg,42 µmol/L
same,"Uric acid (UA) Changes over baseline on day 4, Mean",single dose 6 mg,-30.0 µmol/L
same,"Uric acid (UA) Changes over baseline on day 4, Median",single dose 6 mg,-18.0 µmol/L
same,"Uric acid (UA) Changes over baseline on day 4, Minimum value",single dose 6 mg,-86 µmol/L
same,"Uric acid (UA) Changes over baseline on day 4, maximum value",single dose 6 mg,31 µmol/L
same,"Uric acid (UA) Changes over baseline at last visit (on day 6), Mean",single dose 10 mg,22.1 µmol/L
same,"Uric acid (UA) Changes over baseline at last visit (on day 6), Median",single dose 10 mg,19.0 µmol/L
same,"Uric acid (UA) Changes over baseline at last visit (on day 6), Minimum value",single dose 10 mg,-27 µmol/L
same,"Uric acid (UA) Changes over baseline at last visit (on day 6), maximum value",single dose 10 mg,88 µmol/L
same,"Uric acid (UA) Changes over baseline on day 2, Mean",single dose 10 mg,-69.1 µmol/L
same,"Uric acid (UA) Changes over baseline on day 2, Median",single dose 10 mg,-70.0 µmol/L
same,"Uric acid (UA) Changes over baseline on day 2, Minimum value",single dose 10 mg,-133 µmol/L
same,"Uric acid (UA) Changes over baseline on day 2, maximum value",single dose 10 mg,1 µmol/L
same,"Uric acid (UA) Changes over baseline on day 4, Mean",single dose 10 mg,-32.4 µmol/L
same,"Uric acid (UA) Changes over baseline on day 4, Median",single dose 10 mg,-29.0 µmol/L
same,"Uric acid (UA) Changes over baseline on day 4, Minimum value",single dose 10 mg,-92 µmol/L
same,"Uric acid (UA) Changes over baseline on day 4, maximum value",single dose 10 mg,23 µmol/L
same,"Uric acid (UA) Changes over baseline at last visit (on day 6), Mean",single dose 20 mg,15.1 µmol/L
same,"Uric acid (UA) Changes over baseline at last visit (on day 6), Median",single dose 20 mg,9.0 µmol/L
same,"Uric acid (UA) Changes over baseline at last visit (on day 6), Minimum value",single dose 20 mg,-34 µmol/L
same,"Uric acid (UA) Changes over baseline at last visit (on day 6), maximum value",single dose 20 mg,122 µmol/L
same,"Uric acid (UA) Changes over baseline on day 2, Mean",single dose 20 mg,-131.1 µmol/L
same,"Uric acid (UA) Changes over baseline on day 2, Median",single dose 20 mg,-130.0 µmol/L
same,"Uric acid (UA) Changes over baseline on day 2, Minimum value",single dose 20 mg,-211 µmol/L
same,"Uric acid (UA) Changes over baseline on day 2, maximum value",single dose 20 mg,-42 µmol/L
same,"Uric acid (UA) Changes over baseline on day 4, Mean",single dose 20 mg,-48.3 µmol/L
same,"Uric acid (UA) Changes over baseline on day 4, Median",single dose 20 mg,-62.0 µmol/L
same,"Uric acid (UA) Changes over baseline on day 4, Minimum value",single dose 20 mg,-106 µmol/L
same,"Uric acid (UA) Changes over baseline on day 4, maximum value",single dose 20 mg,50 µmol/L
same,"Uric acid (UA) Changes over baseline at last visit (on day 6), Mean",single dose 30 mg,-13.4 µmol/L
same,"Uric acid (UA) Changes over baseline at last visit (on day 6), Median",single dose 30 mg,-20.0 µmol/L
same,"Uric acid (UA) Changes over baseline at last visit (on day 6), Minimum value",single dose 30 mg,-75 µmol/L
same,"Uric acid (UA) Changes over baseline at last visit (on day 6), maximum value",single dose 30 mg,58 µmol/L
same,"Uric acid (UA) Changes over baseline on day 2, Mean",single dose 30 mg,-165.1 µmol/L
same,"Uric acid (UA) Changes over baseline on day 2, Median",single dose 30 mg,-152.0 µmol/L
same,"Uric acid (UA) Changes over baseline on day 2, Minimum value",single dose 30 mg,-261 µmol/L
same,"Uric acid (UA) Changes over baseline on day 2, maximum value",single dose 30 mg,-79 µmol/L
same,"Uric acid (UA) Changes over baseline on day 4, Mean",single dose 30 mg,-83.0 µmol/L
same,"Uric acid (UA) Changes over baseline on day 4, Median",single dose 30 mg,-69.0 µmol/L
same,"Uric acid (UA) Changes over baseline on day 4, Minimum value",single dose 30 mg,-162 µmol/L
same,"Uric acid (UA) Changes over baseline on day 4, maximum value",single dose 30 mg,-3 µmol/L
same,"uric acid level in the subjects, overall clinical trial result","single-dose and multi-dose groups, p<0.05",reduces the uric acid level in the subjects significantly
same,uric acid level on the following days (days 4 and 6),single-dose groups,gradually recovered
same,uric acid level the next day after administration,"single-dose groups, certain dose dependence",decreases obviously
